# Reference: patent US8548786B2, “Neuronal avalanche assay” (priority 2005, dated 2013)
# Where a name gives a salt, the structure may show the parent alone.
# Legend:
# [1] = system: organotypic cortex-VTA cultures; test: γ-oscillations and neuronal avalanches in organotypic cortex-VTA co-cultures; type: cell-based, rat
# Description: Cortical extracellular neuronal activity was recorded in organotypic cortex-VTA cultures using 8×8 multielectrode arrays (FIG. 17A). The activity in the cortical tissue started as isolated single unit activity, which later formed bursts of multi-unit activity in the form of oscillations (FIG. 17B). […] The appearance of oscillatory activity ranged from closely placed isolated LFPs to frank sinusoidal waves lasting from 50 ms to 500 ms. […] LFP amplitudes varied from −10 μV to −1200 μV (mean=−38.2±3.4 μV) and varied between cultures −10.68±0.53 μV to −223.6±19.25 μV (mean high value).
# Organotypic co-cultures were prepared from the frontal cortex (EC) and ventral-tegmental area (VTA) isolated from postnatal day 1-2 (PND) old rats. The VTA slices were cut at a thickness of 500 μm and cortex at 350 μm. The culture was done with cortex placed on multielectrode arrays (Multichannel Systems, Reutlingen, Germany) with electrode diameter of 30 μm and interelectrode distance of 200 μm. Cultivation and recording was done in a sterile chamber on the microelectrode array as described above. The culture was kept within the incubator with the rocking movement (˜0.005 Hz) throughout the recording. Spontaneous extracellular signals were recorded at a sampling frequency of 4 kHz with 1 kHz low pass filtering continuously for an average of 4±1 hrs. The temperature inside incubator was maintained at 35±0.5° C.
# Neuronal oscillatory activity was analyzed by calculating the power spectrum from periods of prominent LFP activity, i.e. LFP bursts using a discrete Fast Fourier Transform in Matlab (Mathworks). Periods of prominent LFP activity were identified by negative threshold crossing at −3 SD from electrode noise. When calculating the average power spectrum for an activity period on the array, the duration for selecting activity periods was taken as the average duration of individual oscillatory activity in each recording session. While taking activity regions care was taken to avoid recalculation of spectra from the same time period in same electrode. The power spectrum of noise for each electrode was separately calculated from 20 separate recording regions where no activity was present and the power in the noise was subtracted from that in the signal. The selected signal region was filtered with a Hanning window (a cosine window defined by: w(k+1)=0.5*(1−cos(2*pi*(k/(n−1)))), k=0, 1, 2 . . . n−1) before calculating the power spectrum. The power spectrum of each activity period was calculated and averaged from all the active electrodes in each activity period. Then the power spectrum was averaged over the entire 4 hr recording.
# To test the hypothesis, that neuronal avalanches might persist in the presence of oscillatory activity, the signals from all channels were analyzed for LFPs occurring with a peak 3×SD above noise (FIG. 19). This yielded a raster with time of occurrence and peak amplitude of LFPs (FIGS. 19B,C). The data was binned at Δtavg obtained from cross correlation analysis. […] Plotting the probability of occurrence of avalanches of different sizes against avalanches in log-log coordinates of different sizes yielded a curve with slope α=−1.5 (FIGS. 19D,E; mean=−1.53±0.02, n=9).
# About 3 μl of the stock solution was added to the ˜600 μl of culture media in the multielectrode array chamber to reach a final concentration of 10 μM. […] The concentration of DMSO in the working solution was limited to 0.01%. Each addition of the drug was followed by 4 hours of continuous recording, after which the culture was washed by replacing the culture medium with 50% of conditioned media (collected from the same culture the day before drug application) and 50% of fresh, unconditioned medium, followed by 4-8 hrs of recording.
# [2] = system: acute slices of rat medial prefrontal cortex (mPFC); test: Neuronal avalanche (NAS) assay, microelectrode array LFP recording in acute mPFC slices;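 further: 60-electrode array recordings, low-pass filtered at 200 Hz and sampled at 1 kHz, nLFPs detected below −3 SD of electrode noise, avalanches as runs of active bins between silent bins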
# Description: Continuous extracellular signals v(t) can be recorded between 0.1 Hz and 3000 Hz, low-pass filtered at 200 Hz (Butterfly-filter, Multichannel Systems), digitised at a rate of 1 kHz (Δt=1 ms) and stored. For each electrode k (k=[1, nelec], nelec=60), the electrode noise of v(t) can be estimated by calculating the mean and standard deviation (SD) of v(t) from the total duration of the recording, Ttot, which can range, for example, between 40-60 min. […] Negative LFP peaks (nLFPs) at electrode k can be detected by negative threshold crossing at −3 SD of electrode noise and can be characterized by the time and absolute amplitude of the negative LFP peak, A^k(ti), before v(t) returned to threshold. More precisely, at a given temporal resolution Δt, nLFPs at electrode k can be represented by a vector of length nmax, where nmax is an integer value for which Ttot=nmax·Δt. This vector can contain zeros, except for positions ti=i·Δt, iε[1, . . . , nmax,] with values A^k(ti) in μV.
# A neuronal avalanche is a sequence of consecutive time bins of width Δt with at least one nLFP, which is preceded and terminated by at least one time bin with no activity (FIG. 3A). The absence of activity for a period of Δt thus indicates the end of an avalanche. If the decision of whether an avalanche has ended is made too early (Δt too short), avalanches will be terminated prematurely; if the Δt chosen is too long, avalanches will be falsely concatenated. If avalanches did simply propagate like a wave, an approximation for Δt (Δtavg) could be obtained by averaging the time between one nLFP at one electrode and the next nLFP at neighbouring electrodes only. Because nLFPs in avalanches occur in irregular patterns across electrodes on the array, a pair wise approximation can be used in order to assess the average time that is required for nLFPs to propagate between electrodes.
# In order to calculate Δtavg, the distribution of time intervals T for successive nLFPs on the array can be obtained. Starting with the first nLFP, e.g. A^k(ti) on electrode k at time ti, the next occurrence of an nLFP on the array can be searched for, e.g. A^l(tj) on electrode l at time tj, and calculated the time interval Tm-Δt^k,l, where m=(tj−ti)/Δt. This process can be repeated for all occurrences of nLFPs on electrode k and for all electrodes. The resulting values can be combined into one density distribution P(TmΔt), which captures how often successive nLFPs occurred with a particular delay m·Δt on the array irrespective of their spatial location. Consequently, the average value of T provides an approximation for Δtavg, the average time to wait before making a decision whether an nLFP propagated on the array. However, this interval distribution is highly skewed, particularly when one compares the last nLFP with the first nLFP in successive avalanches that are separated by long times. In order to exclude time intervals from successive nLFPs that are barely correlated, a cut-off time τmax can be calculated for which the average crosscorrelation function (ccf) for pair wise electrode comparisons Rccf(τ) had decayed to negligible values. The ccf between electrodes k, l (Rccf^k,l(τ)) can be calculated as
# Because the exemplary maximal sampling rate was 1 kHz, the actual Δt^avg to calculate avalanches can be taken as the nearest multiple of Δt=1 ms. In short, after Δtavg was calculated for a particular network and experimental condition, the extracellular signals v(t) can be re-sampled at the new temporal resolution of Δtavg. Time and amplitude of nLFP peaks can be extracted as A^k(ti), where ti=i·Δtavg, iε[1, n′max] and Ttot=n′max·Δtavg. Avalanches can be determined on the downsampled data set at bin width Δtavg.
# Avalanche sizes can be calculated in two different ways (see also FIG. 3A).
# [3] = system: organotypic cortex cultures; test: Neuronal avalanche assay in organotypic cortex slice cultures on microelectrode arrays; type: cell-based, rat
# Description: Organotypic cultures from slices of rat cortex were prepared in accordance with NIH guidelines. Coronal sections from rat brains (Sprague Dawley, Taconic Farms, Md., USA) at postnatal day 0-2 were cut at 350 μm thickness. A coronal slice section containing dorsal or dorsolateral cortex (˜1.5 mm deep and ˜2-3 mm wide) was positioned on a multi-electrode array (Multichannelsystems, Reutlingen, Germany). The array covered ˜50-70% of the cortical tissue with the bottom row aligned to infragranular layers and the upper rows extending beyond layer I. This arrangement allowed for the dorsal expansion of the cortical slice on the multielectrode array, which results from the development of superficial layers during the first weeks postnatal in rat cortex. The slices were attached to the pre-cleaned, poly-D-lysine coated multielectrode array-surface by coagulation with 15 μl chicken plasma and 15 μl of bovine thrombin (Sigma St. Louis, Mo., USA), after which cultures were grown at 35.5° C. in normal atmosphere in a culture medium consisting of 50% Basal Medium Eagle, 25% Hanks Balanced Salt Solution and 25% horse serum, 0.5% glucose, and 0.5 mM L-glutamine (all Gibco, Grand Island, N.Y., USA). Photographs taken at 1-3 DIV and after recording sessions confirmed the position of recording electrodes in the cortical tissue and organotypic cortex slice culture.
# A custom-built incubator was used in order to allow for long-term pharmacological experiments and repetitive, sterile recording sessions at different developmental stages under identical recording and culturing conditions. The chamber design and preparation of the multielectrode array for recordings has been described in more detail previously. In short, each multielectrode array consisted of a square glass plate (5×5 cm, 1 mm thickness) with a square array of 60 microelectrodes made of titanium nitride (8×8 grid with the corners missing) at its center (Egert et al., 1998). Titanium nitride electrodes were flat and disk-shaped with a diameter of 30 μm, an inter electrode spacing of 200 μm, and were attached to gold leads that ended at the edge of the glass square and served as contacts for the amplifier head stage. A circular glass well (˜10 mm diameter) with a Teflon cap was centered and cured to the glass plate by Sylgard® functioned as a tight-sealed, sterile culture chamber.
# Multielectrode arrays were placed onto storage trays inside the incubator and gently rocked. The temperature inside incubator was maintained at 35±0.5° C. For optimal culture survival and culture growth a rocking trajectory was used that approximated a sinusoidal function (˜400 s cycle time) with brief halts of ˜10 s at the steepest angle before reversing directions. At the points of direction reversal, cultures were exposed to the inner chamber atmosphere. […] After 3 and 27 days in vitro (DIV), […] of mitosis inhibitor was added for 24 hr ([…]; calculated to final concentration; all Sigma). Medium was changed every 3-5 days. No antibiotics were used throughout cultivation and recording periods.
# For recordings, individual multielectrode arrays were placed into the recording head stage (MultiChannelSystems, Inc.), which was affixed to a second tray within the incubator and had the exact same motion as the primary storage tray. This allowed recording in culture medium under conditions identical to growth conditions. The exchange between recording and storage location for each multielectrode array took few seconds and was done without interruption of the rocking cycle. Activity occurred spontaneously in organotypic cortex cultures and was recorded up to 5 hrs giving rise to >10,000 avalanches per network.
# Overall, negative local field potentials (nLFPs) occurred at 82±5% of the electrodes in the acute slices and 88±5% of the electrodes in cultures. Data was sampled at 1 kHz and low pass filtered at 50 Hz. […]
# [4] = system: organotypic cortex-VTA cultures; test: γ-oscillations and neuronal avalanches in organotypic cortex-VTA co-cultures; type: cell-based, rat; remark: listed apart in the source
# [5] = similar for each dopamine concentration, + 3 μM NMDA, n=26 slices
compound,measurement,setting,value
"CN1CCc2cc(Cl)c(O)cc2[C@@H](c2ccccc2)C1 (racemic) [SCH23390, R(±)-7-chloro-8-hydroxy-3-methyl-1-phenyl-2,3,4,5-tetrahydro-1H-3-benzazepine hydrochloride]",shift of peak frequency in the high frequency band from its original value,[1]; SCH23390 10 μM,59±1%
same,reduction of power of dominant frequencies between 40-120 Hz,"[1]; SCH23390 10 μM, n=5",more than 50%
same,slope α of avalanche size distribution,"[1]; SCH23390 10 μM, n=5",−1.60±0.04
same,slope αLFP for washout of antagonist,"[2]; after washout of 10 μM SCH23390, 30 μM dopamine + 3 μM NMDA",−1.55±0.06
"CN1CCN(C2=Nc3cc(Cl)ccc3Nc3ccccc32)CC1 [Clozapine, clozapine]",network state of induced avalanche dynamics,[2]; clozapine 100 nM,epileptic
same,slope αele of avalanche size distribution,[2]; clozapine 100 nM,−2.07±0.08
same,ΔPmax (likelihood of large avalanches beyond linear regression),[2]; clozapine 100 nM,0.006
same,total duration of induced LFP activity,[2]; clozapine 100 nM bath-applied,~40 min
same,initial slope αLFP of avalanche size distribution,"[2]; clozapine 100 nM, Δtavg=1 ms, range 5-60 μV",−2.00±0.13
O=[N+]([O-])c1cc2nc(O)c(O)nc2cc1[N+](=O)[O-] [DNQX],slope α of avalanche size distribution,"[3]; DNQX 3 μM bath-applied, 6 cortical cultures, control −1.5",~−2
"CN[C@H](CC(=O)O)C(=O)O [NMDA, N-Methyl-D-Aspartate]",nLFP and avalanche activity induced by NMDA alone,"[2]; 3 μM NMDA alone in the presence of 10 μM SCH23390, n=7",negligible nLFP and avalanche activity
CN1[C@@H]2CC[C@H]1C[C@@H](OC(=O)C(CO)c1ccccc1)C2 (stereo partly drawn) [atropine],neuronal avalanche induction with muscarinergic receptors blocked,[2]; atropine 10 μM + 3 μM NMDA + 3 μM SKF38393,did not block neuronal avalanche induction
same,power law slope αLFP with muscarinergic receptors blocked,"[2]; atropine 10 μM + 3 μM NMDA + 3 μM SKF38393, n=6",−1.696±0.045
NCCc1ccc(O)c(O)c1 [dopamine],maximal area sele within the power law regime,[2]; 30 μM dopamine + 3 μM NMDA,~18 electrodes
same,optimal bin width Δtavg,[2]; 30 μM dopamine + 3 μM NMDA,2.7 ± 0.2 ms
same,slope αLFP of avalanche size distribution (summed nLFP amplitudes),"[2]; 30 μM dopamine + 3 μM NMDA bath-applied, sLFP=6-300 μV",−1.50±0.03
same,τmax for which Rccf dropped below 10^−4,"[2]; 30 μM dopamine + 3 μM NMDA, all n=6 slices",60 ms
same,cortical layer localisation of induced avalanche activity,"[2]; 30 μM dopamine + 3 μM NMDA, cortical depth 200-900 μm",strongest in superficial layers II/III
same,propagation velocity for nLFPs on the array,"[2]; 30 μM dopamine + 3 μM NMDA, inter-electrode distance 200 μm",~74 mm/s
same,slope αele of avalanche size distribution (number of active electrodes),"[2]; 30 μM dopamine + 3 μM NMDA, sele=1-18 electrodes",−1.47±0.03
same,increase in likelihood of family recurrence beyond chance level,[2]; 30 μM dopamine in the presence of 3 μM NMDA,~500%
same,"Δtavg, average for all dopamine concentrations","[2]; all dopamine concentrations tested + 3 μM NMDA, n=26 experiments",2.7 ± 0.1 ms
same,"mean nLFP peak, rate of nLFPs per electrode and total activity Atot, dependence on dopamine concentration","[2]; dopamine + 3 μM NMDA, inverted-U profile",maximal at moderate concentration of dopamine (30 μM)
same,slope α of cluster size distribution,"[2]; dopamine concentrations lower or higher than 30 μM, + 3 μM NMDA",~−2
same,duration of spontaneous activity,[2]; [5],43 ± 3 min
same,number of active electrodes,[2]; [5],33±4 electrodes
CCN1CCCC1CNC(=O)c1cc(S(N)(=O)=O)ccc1OC (stereo not drawn) [sulpiride],change in γ frequency,[1]; sulpiride 10 μM,without a change in frequency
same,change of power of γ-activity,"[1]; sulpiride 10 μM, n=5",doubled
same,slope α of avalanche size distribution,"[1]; sulpiride 10 μM, n=5",−1.37±0.02
picrotoxin,initial slope α of avalanche size distribution,[3]; picrotoxin 3 μM (FIG. 24C legend),~−2
same,"over-representation of large avalanches, epileptic vs sub-critical state",[3]; picrotoxin 3 μM vs DNQX 3 μM,~10 times
same,decrease in average rate of spontaneous nLFPs,"[3]; picrotoxin 5 μM, N=4 cultures",80±23%
same,increase of deviations in nLFP waveforms relative to initial nLFP,"[3]; picrotoxin 5 μM, first time step",~3.5 fold
same,probability of nLFP being larger than nLFP in the preceding time step,"[3]; picrotoxin 5 μM, normal conditions 0.5",~0.58
same,increase of deviations in nLFP waveforms relative to initial nLFP,"[3]; picrotoxin 5 μM, within 8 time steps",~6 fold
same,initial slope α of avalanche size distribution,[3]; picrotoxin 2-3 μM,−1.8
same,shape of avalanche size distribution,[3]; picrotoxin 2-3 μM,bimodal distribution
same,average burst duration in the network,"[1]; picrotoxin, n=3 cultures",increases the average burst duration
same,power in the δ/θ-frequency range,"[1]; picrotoxin, single culture",increases the power in the δ/θ-frequency range
same,shape of avalanche size distribution,[4]; picrotoxin 5 μM,almost bimodal
same,reduction of γ-oscillations,[4]; picrotoxin 5 μM bath-applied,more than 50%
same,nLFP and avalanche activity after adding GABAA antagonist,[2]; 10 μM picrotoxin added to activity sustained by 30 μM dopamine + 3 μM NMDA,ceased
same,maximal time difference between correlated electrodes τmax,[2]; picrotoxin alone 10 μM,30.5±7.2
same,Δtavg,[2]; picrotoxin alone 10 μM,2.3±0.2
same,avalanche rate,"[2]; picrotoxin alone 10 μM, n=6",0.18±0.02 Hz
same,duration of spontaneous activity,"[2]; picrotoxin alone 10 μM, n=6",28 ± 2 min
same,nLFP rate,"[2]; picrotoxin alone 10 μM, n=6",0.01±0.001 Hz
same,total activity Atot,"[2]; picrotoxin alone 10 μM, n=6",5033±719 μV
same,initial slope αLFP of disinhibited activity,"[2]; picrotoxin alone 10 μM, sLFP=15-85",−1.9±0.08
same,initial slope αele of disinhibited activity,"[2]; picrotoxin alone 10 μM, sele=1-5",−1.97±0.02
same,spontaneous avalanche induction with co-applied GABAA antagonist,"[2]; picrotoxin co-applied with 3 μM NMDA and 3 μM SKF38393, n=6",prevented spontaneous avalanches induction altogether
